US7608601B2, “4′-Substituted nucleoside derivatives as inhibitors of HCV RNA replication” (Roche Palo Alto LLC, priority 2001, dated 2009)

Legend:
[1] = system: Renilla Luciferase HCV replicon cells (2209-23); test: WST-1 cytotoxicity assay; assay type: cell-based, human; conditions: 2209-23 cells, three days
Description: For the assay procedure, Renilla Luciferase HCV replicon cells (2209-23) that cultured in Dulbecco's MEM (GibcoBRL cat no. 31966-021) with 5% fetal calf serum (FCS, GibcoBRL cat. no. 10106-169) were plated onto a 96-well plate at 5000 cells per well, and incubated overnight. Twenty-four hours later, different dilutions of chemical compounds in the growth medium were added to the cells, which were then further incubated at 37° C. for three days. The assay was carried out in duplicate plates, one in opaque white and one in transparent, in order to measure the activity and cytotoxicity of a chemical compound in parallel ensuring the activity seen is not due to reduction on cell proliferation.
For the cytotoxicity assay, WST-1 reagent from Roche Diagnostic (cat no. 1644807) was used. Ten microlitre of WST-1 reagent was added to each well including wells that contain media alone as blanks. Cells were then incubated for 1 to 1.5 hours at 37° C., and the OD value was measured by a 96-well plate reader at 450 nm (reference filter at 650 nm). Again CC50, the concentration of the drug required for reducing cell proliferation by 50% in relation to the untreated cell control value, can be calculated from the plot of percentage reduction of the WST-1 value vs. drug concentration.

[2] = system: HCV replicon RNA; test: Renilla luciferase HCV replicon assay; assay type: cell-based, Hepatitis C Virus; conditions: Huh7 2209-23 cells, three days

Row | SMILES | CC50(μM) WST-1, given as % at a concentration ([1]; at 100 μM) | IC50 ([2]; Hepatitis C virus, Huh-7, 72 h, concentration reducing replicon level by 50% vs untreated control) | CC50(μM) WST-1, given as % at a concentration ([1]; at 20 μM) | IC50 (μM), given as % at a concentration ([2]; at 20 μM)
1 | [N-]=[N+]=N[C@]1(CO)O[C@@H](n2ccc(N)nc2=O)[C@H](O)[C@@H]1O [compound 1, 4′-C-Azidocytidine] | 0% (100 μM) | 1200 nM |  | 
2 | C#C[C@]1(CO)O[C@@H](n2ccc(N)nc2=O)[C@H](O)[C@@H]1O.Cl [compound 3, 4′-C-Ethynylcytidine hydrochloride (1:1)] |  |  | 0% (20 μM) | 3% (20 μM)
